The text below walks through data of ChEMBL document CHEMBL1145354, “Benzopyran sulfonamides as KV1.5 potassium channel blockers” (Bioorg Med Chem Lett, 2007).

The target of data set [1] is hERG (KCNH2) (Homo sapiens, UniProt Q12809). The experiment in a line: Inhibition of human ERG expressed in human embryonic kidney cells at 10 uM. The data set is classed as cell-based. Conditions: human embryonic kidney cells expressing human ERG.
In data set [2] the target is Potassium voltage-gated channel subfamily A member 5 (Homo sapiens, UniProt P22460). Kind of data set: Inhibition of human Kv1.5 channel expressed in mouse L929 cells. The data set is classed as cell-based.
Chain of Potassium voltage-gated channel subfamily A member 5 (P22460 whole entry): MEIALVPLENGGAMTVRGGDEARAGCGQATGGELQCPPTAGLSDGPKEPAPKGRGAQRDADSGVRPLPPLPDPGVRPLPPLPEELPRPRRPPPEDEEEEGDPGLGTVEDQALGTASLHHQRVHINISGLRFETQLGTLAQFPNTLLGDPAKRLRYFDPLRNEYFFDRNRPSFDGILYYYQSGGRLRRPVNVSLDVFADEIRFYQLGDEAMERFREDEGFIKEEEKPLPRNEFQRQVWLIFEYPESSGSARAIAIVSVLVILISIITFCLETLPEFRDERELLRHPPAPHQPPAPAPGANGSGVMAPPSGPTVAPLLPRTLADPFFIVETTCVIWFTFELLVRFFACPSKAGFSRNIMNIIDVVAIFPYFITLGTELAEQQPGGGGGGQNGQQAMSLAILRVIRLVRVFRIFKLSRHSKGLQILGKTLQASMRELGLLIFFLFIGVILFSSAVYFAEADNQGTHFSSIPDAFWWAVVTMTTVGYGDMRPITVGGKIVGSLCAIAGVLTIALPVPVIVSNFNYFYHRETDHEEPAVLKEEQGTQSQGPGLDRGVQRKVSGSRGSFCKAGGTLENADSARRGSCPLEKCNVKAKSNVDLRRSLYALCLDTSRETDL

Chain of hERG (KCNH2) (Q12809 whole entry): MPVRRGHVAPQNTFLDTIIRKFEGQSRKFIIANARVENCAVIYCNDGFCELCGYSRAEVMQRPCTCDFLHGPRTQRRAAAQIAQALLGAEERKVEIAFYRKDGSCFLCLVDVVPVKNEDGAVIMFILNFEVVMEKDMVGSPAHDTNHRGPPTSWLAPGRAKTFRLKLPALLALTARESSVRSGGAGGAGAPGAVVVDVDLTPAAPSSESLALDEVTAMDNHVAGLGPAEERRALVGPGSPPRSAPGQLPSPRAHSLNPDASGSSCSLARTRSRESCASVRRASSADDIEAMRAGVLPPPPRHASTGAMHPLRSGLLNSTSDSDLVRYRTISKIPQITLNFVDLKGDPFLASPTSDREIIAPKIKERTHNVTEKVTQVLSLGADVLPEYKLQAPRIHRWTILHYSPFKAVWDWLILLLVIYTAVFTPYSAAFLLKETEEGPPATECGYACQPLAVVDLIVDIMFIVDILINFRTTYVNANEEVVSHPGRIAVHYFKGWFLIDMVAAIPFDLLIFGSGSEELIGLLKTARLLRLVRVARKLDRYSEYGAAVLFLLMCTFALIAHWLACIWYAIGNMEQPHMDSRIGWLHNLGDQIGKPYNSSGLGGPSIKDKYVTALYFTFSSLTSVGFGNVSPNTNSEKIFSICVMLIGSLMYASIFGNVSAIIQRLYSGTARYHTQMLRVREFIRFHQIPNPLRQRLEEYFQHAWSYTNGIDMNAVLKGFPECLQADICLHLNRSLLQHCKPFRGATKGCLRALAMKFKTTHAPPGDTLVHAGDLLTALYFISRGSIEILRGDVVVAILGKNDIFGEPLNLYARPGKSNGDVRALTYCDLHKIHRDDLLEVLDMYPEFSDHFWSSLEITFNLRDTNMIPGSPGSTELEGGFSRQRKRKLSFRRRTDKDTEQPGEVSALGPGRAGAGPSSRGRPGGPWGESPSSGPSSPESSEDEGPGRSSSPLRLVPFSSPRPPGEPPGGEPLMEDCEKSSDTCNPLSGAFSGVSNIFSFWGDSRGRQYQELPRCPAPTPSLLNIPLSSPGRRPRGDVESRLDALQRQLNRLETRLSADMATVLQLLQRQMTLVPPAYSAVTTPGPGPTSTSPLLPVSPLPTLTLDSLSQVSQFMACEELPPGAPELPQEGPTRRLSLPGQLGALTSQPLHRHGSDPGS

In data set [1], `CCc1ccc(S(=O)(=O)N[C@@H]2c3cc(C(=O)N(CC)Cc4ccccc4F)ccc3OC(C)(C)[C@H]2O)cc1` returned an inhibition at 10 µM of 7%. Also, the IC50 in data set [2] is 170 nM. The compound `CCc1ccc(S(=O)(=O)N[C@@H]2c3cc(C(=O)NCCc4ccccc4)ccc3OC(C)(C)[C@H]2O)cc1` displayed an IC50 in data set [2] of 260 nM. As for `CCc1ccc(S(=O)(=O)N[C@@H]2c3cc(C(=O)N(CC)CCNc4ccccc4)ccc3OC(C)(C)[C@H]2O)cc1`, in data set [1], the inhibition at 10 µM came out at 39%. In data set [2], this compound came in with an IC50 of 77 nM. Consider `CCc1ccc(S(=O)(=O)N[C@@H]2c3cc(C(=O)NCCc4ccccn4)ccc3OC(C)(C)[C@H]2O)cc1`, for which the IC50 in data set [2] was above 1000 nM.

As for `CC1(C)Oc2ccc(C(=O)NCCc3ccccc3)cc2[C@@H](NS(=O)(=O)c2ccccc2)[C@@H]1O`, the IC50 in data set [2] was above 1000 nM.

For the compound `Cc1ccc(S(=O)(=O)N[C@@H]2c3cc(C(=O)NCCc4ccccc4)ccc3OC(C)(C)[C@H]2O)cc1`, the IC50 in data set [2] worked out at 400 nM. Same read-out and setting: to `Cc1cccc(S(=O)(=O)N[C@@H]2c3cc(C(=O)NCCc4ccccc4)ccc3OC(C)(C)[C@H]2O)c1` belongs 340 nM; to `CC1(C)Oc2ccc(C(=O)NCCc3ccccc3)cc2[C@@H](NS(=O)(=O)c2ccccc2OC(F)(F)F)[C@@H]1O`, 150 nM. Same read-out and setting: for `CCc1ccc(S(=O)(=O)N[C@H]2c3cc(C(=O)NCCc4ccccc4)ccc3OC(C)(C)[C@@H]2O)cc1` the value was above 1000 nM; for `CCc1ccc(S(=O)(=O)N[C@H]2c3cc(C(=O)N4CCC[C@@H]4CNc4c(C)cccc4C)ccc3OC(C)(C)[C@@H]2O)cc1`, 89 nM.

With `CCc1ccc(S(=O)(=O)N[C@H]2CC(C)(C)Oc3ccc(C(=O)N4CCC[C@H]4CNc4c(C)cccc4C)cc32)cc1`, in data set [1], 10 µM produced 51% inhibition. The same compound gave an IC50 in data set [2] of 110 nM. Compound `CCc1ccc(S(=O)(=O)N[C@@H]2c3cc(C(=O)N(CC)[C@@H]4CCN(Cc5ccccc5)C4)ccc3OC(C)(C)[C@H]2O)cc1` registered an IC50 in data set [2] of 210 nM. Still for that read-out and setting: to `CCc1ccc(S(=O)(=O)N[C@@H]2c3cc(C(=N)NCCc4ccccc4)ccc3OC(C)(C)[C@H]2O)cc1` belongs above 10000 nM. The same measure, in the same setting: to `CCc1ccc(S(=O)(=O)N(Cc2ccccn2)[C@@H]2c3cc(C(=O)NCCc4ccccc4)ccc3OC(C)(C)[C@H]2O)cc1` belongs 120 nM; to `CCc1ccc(S(=O)(=O)N[C@@H]2c3cc(C(=O)N4CCC[C@@H]4CNc4c(C)cccc4C)ccc3OC(C)(C)[C@H]2O)cc1`, 130 nM.

`CC1(C)Oc2ccc(C(=O)NCCc3ccccc3)cc2[C@@H](NS(=O)(=O)c2ccc(F)cc2)[C@@H]1O` showed an IC50 in data set [2] above 1000 nM. As for `COc1ccc(S(=O)(=O)N[C@@H]2c3cc(C(=O)NCCc4ccccc4)ccc3OC(C)(C)[C@H]2O)cc1`, the IC50 in data set [2] is above 1000 nM. `CCc1ccc(S(=O)(=O)N(Cc2cccnc2)[C@@H]2c3cc(C(=O)NCCc4ccccc4)ccc3OC(C)(C)[C@H]2O)cc1` displayed an inhibition at 10 µM in data set [1] of 61%. The same compound showed an IC50 in data set [2] of 130 nM.

In data set [1], `CCCCN([C@@H]1c2cc(C(=O)NCCc3ccccc3)ccc2OC(C)(C)[C@H]1O)S(=O)(=O)c1ccc(CC)cc1` came in with an inhibition at 10 µM of 35%. The compound also yielded an IC50 in data set [2] of 57 nM.

In data set [2], `CCc1ccc(S(=O)(=O)N(Cc2cnc[nH]2)[C@@H]2c3cc(C(=O)NCCc4ccccc4)ccc3OC(C)(C)[C@H]2O)cc1` gave an IC50 of 280 nM. The same measure, in the same setting: for `CCc1ccc(S(=O)(=O)N(CC(C)(C)C)[C@@H]2c3cc(C(=O)NCCc4ccccc4)ccc3OC(C)(C)[C@H]2O)cc1` the value was 120 nM. In the case of `CCc1ccc(S(=O)(=O)N[C@@H]2c3cc(NC(=O)c4cccc(OC)c4)ccc3OC(C)(C)[C@H]2O)cc1`, in data set [1], 10 µM produced 40% inhibition. Further, the IC50 in data set [2] came out at 290 nM. `CCc1ccc(S(=O)(=O)N[C@@H]2c3cc(C(=O)Nc4cccc(OC)c4)ccc3OC(C)(C)[C@H]2O)cc1`: the IC50 in data set [2] was above 10000 nM.

As for `CCc1ccc(S(=O)(=O)N[C@@H]2c3cc(C(=O)Nc4ccccc4)ccc3OC(C)(C)[C@H]2O)cc1`, the IC50 in data set [2] came out at 260 nM. This lies in the sub-micromolar range.

For the compound `CCc1ccc(S(=O)(=O)N[C@@H]2c3cc(NC(=O)c4cccc(OC)c4)ccc3C[C@H]2O)cc1`, the inhibition at 10 µM in data set [1] is 21%. `CCc1ccc(S(=O)(=O)N[C@@H]2c3cc(CNCCc4ccccc4)ccc3OC(C)(C)[C@H]2O)cc1` registered an IC50 in data set [2] of 240 nM. In the case of `CCc1ccc(S(=O)(=O)N[C@@H]2c3cc(C(=O)N4CCC[C@H]4CNc4c(C)cccc4C)ccc3OC(C)(C)[C@H]2O)cc1`, the inhibition at 10 µM in data set [1] was determined as 9%. This compound yielded an IC50 in data set [2] of 120 nM. Take `CCc1ccc(S(=O)(=O)N[C@@H]2c3cc(C(=O)N(C)c4ccccc4)ccc3OC(C)(C)[C@H]2O)cc1`: half-maximal inhibition in data set [2] (IC50) was put at 280 nM. For `CCc1ccc(S(=O)(=O)N[C@@H]2c3cc(C(=O)n4nc(-c5ccccc5)cc4N)ccc3OC(C)(C)[C@H]2O)cc1`, the inhibition at 10 µM in data set [1] amounted to 47%. In addition, the IC50 in data set [2] came out at 79 nM. In turn, `CCc1ccc(S(=O)(=O)N[C@@H]2c3cc(C(=O)N(CC)[C@H]4CCN(Cc5ccccc5)C4)ccc3OC(C)(C)[C@H]2O)cc1` gave an IC50 in data set [2] of 170 nM. The same measure, in the same setting: to `CCc1ccc(S(=O)(=O)N[C@H]2c3cc(C(=O)N4CCC[C@H]4CNc4c(C)cccc4C)ccc3OC(C)(C)[C@@H]2O)cc1` belongs 260 nM; to `CCc1ccc(S(=O)(=O)N[C@H]2c3cc(C(=O)N(CC)[C@@H]4CCN(Cc5ccccc5)C4)ccc3OC(C)(C)[C@@H]2O)cc1`, 220 nM; to `CCc1ccc(S(=O)(=O)N[C@@H]2c3cc(C(=O)NCCc4c[nH]cn4)ccc3OC(C)(C)[C@H]2O)cc1`, above 10000 nM. Still for that read-out and setting: to `CC1(C)Oc2ccc(C(=O)NCCc3ccccc3)cc2[C@@H](NS(=O)(=O)c2ccc(C(F)(F)F)cc2)[C@@H]1O` belongs 200 nM; to `CCc1ccc(S(=O)(=O)N[C@@H]2c3cc(S(=O)(=O)NCCc4ccccc4)ccc3OC(C)(C)[C@H]2O)cc1`, 510 nM.

As to `CC1(C)Oc2ccc(C(=O)NCCc3ccccc3)cc2[C@@H](NS(=O)(=O)c2ccc([N+](=O)[O-])cc2)[C@@H]1O`, the IC50 in data set [2] was above 1000 nM. The same measure, in the same setting: to `CCc1ccc(S(=O)(=O)N(CC(C)C)[C@@H]2c3cc(C(=O)NCCc4ccccc4)ccc3OC(C)(C)[C@H]2O)cc1` belongs 320 nM.

In turn, `CCc1ccc(S(=O)(=O)N[C@H]2c3cc(C(=O)N(CC)[C@H]4CCN(Cc5ccccc5)C4)ccc3OC(C)(C)[C@@H]2O)cc1` gave an inhibition at 10 µM in data set [1] of 80%. Also, the IC50 in data set [2] was 200 nM.

As usually defined, the inhibition is the relative decrease from the control value, in per cent. High values mean strong suppression, low ones little suppression. By IC50 is commonly meant the concentration at which inhibition is half-maximal. A higher IC50 goes with weaker potency in that assay.
